Experimental data from PubChem BioAssay (NCI).
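Briefly, cells in 96-well plates were exposed to five compound concentrations for 48 h, and endpoints were estimated by linear interpolation. At the TGI there is no net growth.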

What was measured:
Experiment in all cases: inhibition of tumour cell growth, NCI panel, 48 h
[1] = tested on: SK-MEL-28 melanoma
[2] = tested on: MDA-MB-435
[3] = tested on: ACHN renal
[4] = tested on: IGROV1 ovarian
[5] = tested on: SK-MEL-5 melanoma
[6] = tested on: KM12 colon
[7] = tested on: K-562 leukemia
[8] = tested on: SN12C renal
[9] = tested on: NCI-H23 lung
[10] = tested on: OVCAR-3 ovarian
[11] = tested on: MALME-3M melanoma
[12] = tested on: UACC-62 melanoma
[13] = tested on: SK-MEL-2 melanoma
[14] = tested on: T-47D breast
[15] = tested on: DU-145 prostate
[16] = tested on: COLO 205 colon
[17] = tested on: OVCAR-8 ovarian
[18] = tested on: SW-620 colon
[19] = tested on: SF-268 CNS
[20] = tested on: OVCAR-5 ovarian
[21] = tested on: MDA-N
[22] = tested on: HCC-2998 colon
[23] = tested on: MOLT-4 leukemia
[24] = tested on: SNB-19 CNS
[25] = tested on: UACC-257 melanoma
[26] = tested on: A549 NSCLC
[27] = tested on: MCF7 breast
[28] = tested on: A498 renal
[29] = tested on: SF-295 CNS
[30] = tested on: TK-10 renal
[31] = tested on: HT29 colon
[32] = tested on: NCI-H226 lung
[33] = tested on: CCRF-CEM leukemia
[34] = tested on: RPMI-8226 leukemia
[35] = tested on: CAKI-1 renal
[36] = tested on: SK-OV-3 ovarian
[37] = tested on: EKVX NSCLC
[38] = tested on: M14 melanoma
[39] = tested on: HCT-116 colon
[40] = tested on: MDA-MB-231 breast
[41] = tested on: UO-31 renal
[42] = tested on: OVCAR-4 ovarian
[43] = tested on: HS 578T breast
[44] = tested on: NCI/ADR-RES ovarian
[45] = tested on: HOP-62 NSCLC
[46] = tested on: NCI-H522 lung
[47] = tested on: HCT-15 colon
[48] = tested on: BT-549 breast
[49] = tested on: U251 CNS
[50] = tested on: RXF 393 renal
[51] = tested on: 786-0 renal
[52] = tested on: PC-3 prostate
[53] = tested on: SF-539 CNS
[54] = tested on: SR leukemia
[55] = tested on: SNB-75 CNS
[56] = tested on: NCI-H460 lung
[57] = tested on: LOX IMVI melanoma
[58] = tested on: HOP-92 NSCLC

For `CC12CCC(CC1=O)C2(C)CCC(N)=O` (configuration not stated), the TGI [1] was > 100 µM, the TGI [2] was > 100 µM and the TGI [3] was > 100 µM. The TGI [4] was > 100 µM, the TGI [5] was > 100 µM and the TGI [6] was > 100 µM. For the same compound, the TGI [7] was > 100 µM, the TGI [8] was > 100 µM and the TGI [9] was > 100 µM. The TGI [10] was > 100 µM, the TGI [11] was > 100 µM and the TGI [12] was > 100 µM. The TGI [13] was > 100 µM, the TGI [14] was > 100 µM and the TGI [15] was > 100 µM. The TGI [16] was > 100 µM, the TGI [17] was > 100 µM and the TGI [18] was > 100 µM. For the same compound, the TGI [19] was > 100 µM, the TGI [20] was > 100 µM and the TGI [21] was > 100 µM. The TGI [22] was > 100 µM, the TGI [23] was > 100 µM and the TGI [24] was > 100 µM. The TGI [25] was > 100 µM, the TGI [26] was > 100 µM and the TGI [27] was > 100 µM. For the same compound, the TGI [28] was > 100 µM, the TGI [29] was > 100 µM and the TGI [30] was > 100 µM. For the same compound, the TGI [31] was > 100 µM, the TGI [32] was > 100 µM and the TGI [33] was > 100 µM. For the same compound, the TGI [34] was > 100 µM, the TGI [35] was > 100 µM and the TGI [36] was > 100 µM. For the same compound, the TGI [37] was > 100 µM, the TGI [38] was > 100 µM and the TGI [39] was > 100 µM. For the same compound, the TGI [40] was > 100 µM, the TGI [41] was > 100 µM and the TGI [42] was > 100 µM. For the same compound, the TGI [43] was > 100 µM, the TGI [44] was > 100 µM and the TGI [45] was > 100 µM. For the same compound, the TGI [46] was > 100 µM, the TGI [47] was > 100 µM and the TGI [48] was > 100 µM. The TGI [49] was > 100 µM, the TGI [50] was > 100 µM and the TGI [51] was > 100 µM. For the same compound, the TGI [52] was > 100 µM.
For `O=C1C(Cl)=C(OCCCCl)C(=O)c2c(O)ccc(O)c21`, the TGI [1] was 4.48 µM, the TGI [3] was 16.3 µM and the TGI [4] was 13.1 µM. The TGI [5] was 3.33 µM, the TGI [6] was 29.1 µM and the TGI [53] was 8.97 µM. For the same compound, the TGI [7] was 1.7 µM, the TGI [8] was 5.1 µM and the TGI [9] was 5.53 µM. The TGI [10] was 6.77 µM, the TGI [11] was 3.6 µM and the TGI [12] was 3.9 µM. For the same compound, the TGI [14] was 6.43 µM, the TGI [15] was 22.8 µM and the TGI [16] was 3.09 µM. It also gave a TGI [17] of 20.9 µM, a TGI [18] of 4.29 µM and a TGI [19] of 8.61 µM. For the same compound, the TGI [20] was 26.4 µM, the TGI [21] was 2.98 µM and the TGI [22] was 30.2 µM. It also gave a TGI [23] of 1.86 µM, a TGI [24] of 32.5 µM and a TGI [25] of 5.98 µM. It also gave a TGI [54] of 1.2 µM, a TGI [26] of 14.6 µM and a TGI [27] of 3.12 µM. For the same compound, the TGI [28] was 28.5 µM, the TGI [29] was 18.3 µM and the TGI [30] was 9.48 µM. For the same compound, the TGI [31] was 5 µM, the TGI [55] was 3.91 µM and the TGI [32] was 30.8 µM. The TGI [56] was 27.2 µM, the TGI [33] was 0.168 µM and the TGI [34] was 5.58 µM. It also gave a TGI [35] of 2.51 µM, a TGI [36] of 35.9 µM and a TGI [37] of 40.9 µM. The TGI [38] was 2.96 µM, the TGI [39] was 3.91 µM and the TGI [40] was 6 µM. The TGI [41] was 12.1 µM, the TGI [42] was 7.14 µM and the TGI [43] was 22.8 µM. For the same compound, the TGI [44] was 24.3 µM, the TGI [45] was 22 µM and the TGI [57] was 3.35 µM. The TGI [47] was 5.06 µM, the TGI [48] was 3.86 µM and the TGI [58] was 3.28 µM. For the same compound, the TGI [49] was 13.8 µM, the TGI [50] was 4.38 µM and the TGI [51] was 4.81 µM. For the same compound, the TGI [52] was 12.7 µM.
